Columns and labels:
[1] = tested on: HTC-C3 (Thyroid Gland Carcinoma); test: Bliss excess, mean over the matrix (fraction); higher = more synergy
Method in brief: (§1)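 Cell lines grown in DMEM/F12 or RPMI with 10% FBS were plated in 1536-well plates and held 24 hours at 37°C, 5% CO2 before 72 hours of exposure to two-drug dose matrices, with DMSO typically at 0.2%. CellTiter-Glo 2.0 luminescence gave viability, which was converted to inhibition. Vehicle wells were set to 0 and blank wells to 1. Combination Emax is the second-highest inhibition in the matrix, and Bliss excess is the observed combination effect minus the expected EA + EB − EA·EB, where EA and EB are the single-agent effects.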

[2] = tested on: RT4 (Bladder Carcinoma); test: as above
Method in brief: as §1

[3] = tested on: Becker (Low Grade Glioma); test: combination Emax (second highest fraction inhibited in the dose matrix, 72 h); higher = more inhibition; extreme values may be limits of the assay
Method in brief: as §1

[4] = tested on: HTC-C3 (Thyroid Gland Carcinoma); test: as above
Method in brief: as §1

[5] = tested on: CML-T1 (Chronic Myelogenous Leukemia); test: as above
Method in brief: as §1

[6] = tested on: LOUCY (T-Lymphoblastic Leukemia); test: as above
Method in brief: as §1

[7] = tested on: AN3-CA (Endometrial Carcinoma); test: as above
Method in brief: as §1

[8] = tested on: CHL-1 (Melanoma); test: as above
Method in brief: as §1

[9] = tested on: OCI-AML5 (Acute Myeloid Leukemia); test: as above
Method in brief: as §1

[10] = tested on: RT4 (Bladder Carcinoma); test: as above
Method in brief: as §1

[11] = tested on: BALL-1 (B-Lymphoblastic Leukemia); test: as above
Method in brief: as §1

[12] = tested on: PC-14 (Lung Adenocarcinoma); test: as above
Method in brief: as §1

[13] = tested on: LAMA-84 (Chronic Myelogenous Leukemia); test: as above
Method in brief: as §1

[14] = tested on: NCI-H1755 (Lung Adenocarcinoma); test: as above
Method in brief: as §1

[15] = tested on: JHH-1 (Hepatocellular Carcinoma); test: as above
Method in brief: as §1

[16] = tested on: NCI-H1155 (Non-Small Cell Lung Carcinoma); test: as above
Method in brief: as §1

[17] = tested on: NCI-H196 (Small Cell Lung Carcinoma); test: as above
Method in brief: as §1

[18] = tested on: RL95-2 (Endometrial Carcinoma); test: as above
Method in brief: as §1

[19] = tested on: OV-90 (Ovarian Carcinoma); test: as above
Method in brief: as §1

[20] = tested on: Calu-6 (Non-Small Cell Lung Carcinoma); test: as above
Method in brief: as §1
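Wherever Bliss excess, mean over the matrix is given: after 72 h of two-drug dosing.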

| SMILES | Bliss excess [1] | Bliss excess [2] | combination Emax [3] | combination Emax [4] | combination Emax [5] | combination Emax [6] | combination Emax [7] | combination Emax [8] | combination Emax [9] | combination Emax [10] | combination Emax [11] | combination Emax [12] | combination Emax [13] | combination Emax [14] | combination Emax [15] | combination Emax [16] | combination Emax [17] | combination Emax [18] | combination Emax [19] | combination Emax [20] |
| --- | --- | --- | --- | --- | --- | --- | --- | --- | --- | --- | --- | --- | --- | --- | --- | --- | --- | --- | --- | --- |
| Cc1cc2ncnn2cc1Nc1ncc2c(n1)n(C1CCOCC1)c(=O)n2C [AZD7648] + C=CCn1c(=O)c2cnc(Nc3ccc(N4CCN(C)CC4)cc3)nc2n1-c1cccc(C(C)(C)O)n1 [AZD1775] (first compound max 10 µM, partner max 1 µM) | 0.0255 | 0.0218 | 0.311 | 0.383 | 0.941 | 1 | 0.465 | 0.704 | 0.947 | 0.446 | 0.983 | 0.86 | 0.953 | 0.77 | 0.433 | 0.485 | 0.479 | 0.408 | 0.409 | 0.779 |
| Cc1cc2ncnn2cc1Nc1ncc2c(n1)n(C1CCOCC1)c(=O)n2C [AZD7648] + CCN(CCO)CCCOc1ccc2c(Nc3cc(CC(=O)Nc4cccc(F)c4)[nH]n3)ncnc2c1 [AZD2811] (first compound max 10 µM, 7x7, partner max 1 µM) | 0.0226 | 0.0534 | 0.214 | 0.202 | 0.49 | 0.948 | 0.354 | 0.308 | 0.969 | 0.491 | 0.53 | 0.312 | 0.336 | 0.599 | 0.113 | 0.475 | 0.185 | 0.595 | 0.323 | 0.317 |
| Cc1cc2ncnn2cc1Nc1ncc2c(n1)n(C1CCOCC1)c(=O)n2C [AZD7648] + CN(C)CCCOc1ccc(-c2ccc3ncc4c(c3c2)n(C2CCOCC2)c(=O)n4C)cn1 [AZD0156] (first compound max 10 µM, 7x7, partner max 1 µM) | 0.0024 | 0.0212 | 0.184 | 0.161 | 0.388 | 0.604 | 0.321 | 0.253 | 0.297 | 0.42 | 0.295 | 0.28 | 0.202 | 0.362 | 0.207 | 0.319 | 0.203 | 0.246 | 0.216 | 0.381 |
| Cc1cc2ncnn2cc1Nc1ncc2c(n1)n(C1CCOCC1)c(=O)n2C [AZD7648] + C[C@@H]1COCCN1C2=NC(=NC(=C2)C3(CC3)[S@](=N)(=O)C)C4=C5C=CNC5=NC=C4 [AZD6738] (first compound max 10 µM, 7x7, partner max 10 µM) | 0.0229 | 0.0354 | 0.607 | 0.802 | 0.936 | 1 | 0.435 | 0.798 | 0.882 | 0.488 | 0.986 | 0.805 | 0.947 | 0.883 | 0.476 | 0.746 | 0.365 | 0.592 | 0.489 | 0.741 |
| Cc1cc2ncnn2cc1Nc1ncc2c(n1)n(C1CCOCC1)c(=O)n2C [AZD7648] + O=C(c1cc(Cc2n[nH]c(=O)c3ccccc23)ccc1F)N1CCN(C(=O)C2CC2)CC1 [Olaparib] (first compound max 10 µM, 7x7, partner max 10 µM) | -0.0224 | 0.0016 | 0.12 | 0.214 | 0.71 | 0.444 | 0.304 | 0.134 | 0.25 | 0.28 | 0.826 | 0.241 | 0.17 | 0.263 | 0.105 | 0.293 | 0.129 | 0.264 | 0.238 | 0.355 |
| NC1(C(=O)N[C@@H](CCO)c2ccc(Cl)cc2)CCN(c2ncnc3[nH]ccc23)CC1 [Capivasertib] + CC(=O)c1c(C)c2cnc(Nc3ccc(N4CCNCC4)cn3)nc2n(C2CCCC2)c1=O [Palbociclib] (first compound max 10 µM, 7x7, partner max 10 µM) | 0.0437 | 0.0114 | 0.624 | 0.474 | 0.939 | 0.688 | 0.803 | 0.191 | 0.479 | 0.362 | 0.597 | 0.582 | 0.558 | 0.659 | 0.143 | 0.566 | 0.258 | 0.904 | 0.305 | 0.415 |
| NC1(C(=O)N[C@@H](CCO)c2ccc(Cl)cc2)CCN(c2ncnc3[nH]ccc23)CC1 [Capivasertib] + CC(C)n1c(=O)n(C)c2cnc3cc(F)c(-c4ccc(OCCCN5CCCCC5)nc4)cc3c21 [AZD1390] (first compound max 10 µM, 7x7, partner max 0.3 µM) | -0.0216 | -0.0651 | 0.522 | 0.308 | 0.656 | 0.623 | 0.756 | 0.126 | 0.22 | 0.0517 | 0.576 | 0.392 | 0.328 | 0.443 | 0.169 | 0.357 | 0.267 | 0.823 | 0.284 | 0.222 |
| NC1(C(=O)N[C@@H](CCO)c2ccc(Cl)cc2)CCN(c2ncnc3[nH]ccc23)CC1 [Capivasertib] + CCN(CCO)CCCOc1ccc2c(Nc3cc(CC(=O)Nc4cccc(F)c4)[nH]n3)ncnc2c1 [AZD2811] (first compound max 10 µM, 7x7, partner max 1 µM) | -0.015 | -0.0039 | 0.535 | 0.405 | 0.9 | 0.918 | 0.786 | 0.567 | 0.974 | 0.457 | 0.74 | 0.505 | 0.612 | 0.648 | 0.232 | 0.864 | 0.358 | 1 | 0.364 | 0.413 |
| NC1(C(=O)N[C@@H](CCO)c2ccc(Cl)cc2)CCN(c2ncnc3[nH]ccc23)CC1 [Capivasertib] + COc1nnc2ccc(N3CCC(c4ccc(OCCN5CCN(C)C(=O)[C@H]5C)cc4)CC3)nn12 [AZD5153] (first compound max 10 µM, 7x7, partner max 1 µM) | 0.0265 | -0.0021 | 0.593 | 0.791 | 0.703 | 0.998 | 0.75 | 0.708 | 0.769 | 0.457 | 0.973 | 0.638 | 0.907 | 0.717 | 0.378 | 0.822 | 0.326 | 0.9 | 0.596 | 0.461 |
| NC1(C(=O)N[C@@H](CCO)c2ccc(Cl)cc2)CCN(c2ncnc3[nH]ccc23)CC1 [Capivasertib] + C[C@@H]1COCCN1C2=NC(=NC(=C2)C3(CC3)[S@](=N)(=O)C)C4=C5C=CNC5=NC=C4 [AZD6738] (first compound max 10 µM, 7x7, partner max 10 µM) | -0.0323 | -0.022 | 0.747 | 0.823 | 0.988 | 0.979 | 0.849 | 0.732 | 0.917 | 0.577 | 1 | 0.854 | 0.941 | 0.83 | 0.409 | 0.816 | 0.408 | 0.886 | 0.614 | 0.792 |
| NC1(C(=O)N[C@@H](CCO)c2ccc(Cl)cc2)CCN(c2ncnc3[nH]ccc23)CC1 [Capivasertib] + Cn1cnc2c(F)c(Nc3ccc(Br)cc3Cl)c(C(=O)NOCCO)cc21 [Selumetinib] (first compound max 10 µM, 7x7, partner max 10 µM) | 0.0677 | -0.0196 | 0.65 | 0.772 | 0.828 | 0.66 | 0.815 | 0.367 | 0.951 | 0.45 | 0.478 | 0.834 | 0.977 | 0.644 | 0.295 | 0.473 | 0.281 | 1 | 0.627 | 0.707 |
| Cc1nc(Nc2ncc(C(=O)Nc3c(C)cccc3Cl)s2)cc(N2CCN(CCO)CC2)n1 [Dasatinib] + CC(=O)Nc1cccc(-n2c(=O)n(C3CC3)c(=O)c3c(Nc4ccc(I)cc4F)n(C)c(=O)c(C)c32)c1 [Trametinib] (first compound max 2 µM, 7x7, partner max 1 µM) | -0.0093 | -0.0057 | 0.5 | 0.906 | 0.966 | 0.344 | 0.491 | 0.409 | 0.81 | 0.822 | 0.257 | 1 | 1 | 0.961 | 0.806 | 0.237 | 0.103 | 0.405 | 0.752 | 0.969 |
| COc1cccc2c1C(=O)c1c(O)c3c(c(O)c1C2=O)C[C@@](O)(C(=O)CO)C[C@@H]3O[C@H]1C[C@H](N)[C@H](O)[C@H](C)O1 [Doxorubicin] + Cc1cc2ncnn2cc1Nc1ncc2c(n1)n(C1CCOCC1)c(=O)n2C [AZD7648] (first compound max 1 µM, 7x7, partner max 10 µM) | 0.0263 | 0.039 | 0.555 | 0.427 | 1 | 0.943 | 0.501 | 0.767 | 0.988 | 0.867 | 0.99 | 0.748 | 0.822 | 0.776 | 0.353 | 0.916 | 0.145 | 0.376 | 0.569 | 0.516 |

Reference: the supplement of paper PMC11061612
